# Assays:
# Assay type in all cases: biochemical
# syn-TKT [1] = molecular target: T1, syn-TKT (Synechocystis sp. PCC 6803, UniProt P73282); test: alcohol dehydrogenase-coupled NADH assay, inhibition; details: 1 mM AMP, glycylglycine pH 7.5, thiamine pyrophosphate, Mg2+
# T1 construct: gene tktA; recombinant from genomic DNA, pET-28a(+), E. coli BL21, HisTrap purified
# T1 sequence (P73282 1-670): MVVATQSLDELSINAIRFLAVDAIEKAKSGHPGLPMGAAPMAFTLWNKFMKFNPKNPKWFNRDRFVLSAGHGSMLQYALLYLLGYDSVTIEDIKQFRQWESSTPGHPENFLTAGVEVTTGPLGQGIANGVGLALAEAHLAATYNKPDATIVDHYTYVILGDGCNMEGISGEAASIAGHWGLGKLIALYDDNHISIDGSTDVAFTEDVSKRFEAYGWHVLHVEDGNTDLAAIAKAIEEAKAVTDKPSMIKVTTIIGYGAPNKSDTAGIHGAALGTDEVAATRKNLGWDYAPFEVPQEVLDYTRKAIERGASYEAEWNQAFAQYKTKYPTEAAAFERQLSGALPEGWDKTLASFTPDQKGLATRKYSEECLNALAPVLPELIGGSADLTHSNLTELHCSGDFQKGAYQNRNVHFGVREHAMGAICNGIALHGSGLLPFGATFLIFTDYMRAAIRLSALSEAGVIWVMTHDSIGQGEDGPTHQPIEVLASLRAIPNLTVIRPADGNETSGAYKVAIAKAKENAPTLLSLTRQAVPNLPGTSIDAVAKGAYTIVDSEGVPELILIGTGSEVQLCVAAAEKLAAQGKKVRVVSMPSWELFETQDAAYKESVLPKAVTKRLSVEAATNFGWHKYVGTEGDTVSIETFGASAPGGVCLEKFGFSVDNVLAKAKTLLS
# syn-TKT [2] = molecular target: T1, syn-TKT; test: alcohol dehydrogenase-coupled NADH consumption at […] nm; details: 100 mM L-erythrulose, 2 mM thiamine pyrophosphate, 5 mM MgCl2, 100 mM glycylglycine pH 7.5; no added metabolite
# cn-TKT [3] = molecular target: T2, cn-TKT (Cupriavidus necator, UniProt P21726); test: as above; details: 100 mM L-erythrulose, 2 mM thiamine pyrophosphate, 5 mM MgCl2, 100 mM glycylglycine pH 7.5; no added metabolite
# T2 construct: gene cbbTP; recombinant from genomic DNA, pET-28a(+), E. coli BL21, HisTrap purified
# T2 sequence (P21726 1-670): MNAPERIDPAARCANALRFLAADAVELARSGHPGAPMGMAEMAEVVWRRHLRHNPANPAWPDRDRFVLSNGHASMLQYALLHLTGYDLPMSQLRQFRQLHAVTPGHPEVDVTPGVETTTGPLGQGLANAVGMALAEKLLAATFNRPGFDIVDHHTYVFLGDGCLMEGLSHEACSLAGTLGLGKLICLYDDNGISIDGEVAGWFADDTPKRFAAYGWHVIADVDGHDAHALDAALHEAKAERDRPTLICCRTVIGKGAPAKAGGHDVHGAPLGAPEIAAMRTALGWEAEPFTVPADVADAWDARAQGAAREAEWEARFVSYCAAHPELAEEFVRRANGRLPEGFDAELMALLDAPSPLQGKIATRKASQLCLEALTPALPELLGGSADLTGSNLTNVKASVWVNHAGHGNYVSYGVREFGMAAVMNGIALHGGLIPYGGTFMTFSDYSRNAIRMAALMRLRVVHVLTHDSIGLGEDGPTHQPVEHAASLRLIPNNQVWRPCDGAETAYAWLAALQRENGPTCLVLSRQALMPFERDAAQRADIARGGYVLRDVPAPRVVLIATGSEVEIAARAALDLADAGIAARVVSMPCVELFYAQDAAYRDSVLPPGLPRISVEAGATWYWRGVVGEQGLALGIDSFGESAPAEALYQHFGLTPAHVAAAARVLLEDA
# syn-F/SBPase [4] = molecular target: T3, syn-F/SBPase (Synechocystis sp. PCC 6803, UniProt P73922, R194H); test: Malachite Green phosphate release, activation; details: substrate fructose-1,6-bisphosphate; AMP-insensitive variant
# T3 construct: gene slr2094; recombinant, codon-optimised, pET-28a(+), E. coli BL21, HisTrap purified; homotetramer
# T3 sequence (P73922 whole entry R194H): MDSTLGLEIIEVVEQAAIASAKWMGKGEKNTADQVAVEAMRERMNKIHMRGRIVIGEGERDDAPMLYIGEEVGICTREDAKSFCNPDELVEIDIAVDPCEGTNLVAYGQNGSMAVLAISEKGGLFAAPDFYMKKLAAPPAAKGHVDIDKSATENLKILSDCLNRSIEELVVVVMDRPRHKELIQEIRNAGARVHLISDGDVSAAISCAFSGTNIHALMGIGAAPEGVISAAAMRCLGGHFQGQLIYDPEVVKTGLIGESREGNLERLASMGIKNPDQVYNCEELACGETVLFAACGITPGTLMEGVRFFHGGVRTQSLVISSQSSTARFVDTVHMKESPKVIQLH
# syn-F/SBPase [5] = molecular target: T3, syn-F/SBPase; test: Malachite Green phosphate release, inhibition; details: substrate fructose-1,6-bisphosphate; AMP-insensitive variant
# cn-TKT [6] = molecular target: T2, cn-TKT; test: alcohol dehydrogenase-coupled NADH assay, inhibition; details: 1 mM dihydroxyacetone phosphate, glycylglycine pH 7.5, thiamine pyrophosphate, Mg2+
# cn-F/SBPase = molecular target: T4, cn-F/SBPase (Cupriavidus necator, UniProt P19912); test: Malachite Green phosphate release, Hill fit; details: 50 mM Tris-HCl, 15 mM MgCl2, 10 mM DTT, 30 °C; no added metabolite
# T4 construct: gene fbp3; recombinant, codon-optimised, pET-28a(+), E. coli BL21, HisTrap purified
# T4 sequence (P19912 1-364): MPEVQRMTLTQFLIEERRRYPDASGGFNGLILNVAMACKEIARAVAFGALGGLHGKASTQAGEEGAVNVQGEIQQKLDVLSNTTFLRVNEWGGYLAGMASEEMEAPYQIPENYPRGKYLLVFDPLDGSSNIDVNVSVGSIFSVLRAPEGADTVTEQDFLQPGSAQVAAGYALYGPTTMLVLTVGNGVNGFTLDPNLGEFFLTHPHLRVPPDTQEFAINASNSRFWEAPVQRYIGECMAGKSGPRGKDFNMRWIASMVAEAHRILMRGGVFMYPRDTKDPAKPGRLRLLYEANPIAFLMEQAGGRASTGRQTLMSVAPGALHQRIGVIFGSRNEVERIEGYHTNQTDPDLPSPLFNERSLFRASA
# syn-F/SBPase [7] = molecular target: T5, syn-F/SBPase (Synechocystis sp. PCC 6803, UniProt P73922); test: Malachite Green phosphate release, Hill fit; details: 50 mM Tris-HCl, 15 mM MgCl2, 10 mM DTT, 30 °C; no added metabolite
# T5 construct: gene slr2094; recombinant, codon-optimised, pET-28a(+), E. coli BL21, HisTrap purified; homotetramer
# T5 sequence (P73922 1-345): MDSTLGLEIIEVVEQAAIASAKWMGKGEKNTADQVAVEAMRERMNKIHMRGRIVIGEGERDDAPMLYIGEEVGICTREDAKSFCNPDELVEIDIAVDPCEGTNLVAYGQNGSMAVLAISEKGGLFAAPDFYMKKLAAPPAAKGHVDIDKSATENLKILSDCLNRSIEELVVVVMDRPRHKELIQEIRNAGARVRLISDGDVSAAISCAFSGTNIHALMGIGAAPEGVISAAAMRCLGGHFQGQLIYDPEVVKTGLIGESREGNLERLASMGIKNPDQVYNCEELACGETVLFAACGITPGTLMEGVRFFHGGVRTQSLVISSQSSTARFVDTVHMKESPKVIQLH
smiles,measurement,setting,value
Nc1ncnc2c1ncn2[C@@H]1O[C@H](COP(=O)(O)O)[C@@H](O)[C@H]1O [AMP],"alcohol dehydrogenase-coupled NADH assay, inhibition",syn-TKT [1],"AMP and dihydroxyacetone phosphate, which specifically reduced the activity of syn-TKT and cn-TKT, respectively"
O=P(O)(O)OC[C@H]1OC(O)[C@H](O)[C@@H]1O (stereo partly drawn) [D-ribose-5-phosphate],KM,syn-TKT [2],conversion of D-ribose-5-phosphate and L-erythrulose to sedoheptulose-7-phosphate and glycolaldehyde was measured
same,KM,cn-TKT [3],conversion of D-ribose-5-phosphate and L-erythrulose to sedoheptulose-7-phosphate and glycolaldehyde was measured
"O=C[C@H](O)COP(=O)(O)O [GAP, glyceraldehyde-3-phosphate]","Malachite Green phosphate release, activation",syn-F/SBPase [4],This mutant lost AMP sensitivity but retained sensitivity to both GAP activation and NADPH inhibition
NC(=O)C1=CN([C@@H]2O[C@H](COP(=O)(O)OP(=O)(O)OC[C@H]3O[C@@H](n4cnc5c(N)ncnc54)[C@H](OP(=O)(O)O)[C@@H]3O)[C@@H](O)[C@H]2O)C=CC1 [NADPH],"Malachite Green phosphate release, inhibition",syn-F/SBPase [5],This mutant lost AMP sensitivity but retained sensitivity to both GAP activation and NADPH inhibition
O=C(CO)COP(=O)(O)O [dihydroxyacetone phosphate],"alcohol dehydrogenase-coupled NADH assay, inhibition",cn-TKT [6],"AMP and dihydroxyacetone phosphate, which specifically reduced the activity of syn-TKT and cn-TKT, respectively"
"O=P(O)(O)OC[C@H]1OC(O)(COP(=O)(O)O)[C@@H](O)[C@@H]1O (some centres unmarked) [fructose-1,6-bisphosphate]",KM,cn-F/SBPase,Initial rates of syn-F/SBPase and cn-F/SBPase were measured at different substrate concentrations
same,KM,syn-F/SBPase [7],"activity on the substrate fructose-1,6-bisphosphate was screened using Malachite Green (MG) detection"

# From publication PMC10507043, “Metabolite interactions in the bacterial Calvin cycle and implications for flux regulation” (Communications Biology, 2023)
